Here are results for five compounds from patent US8877795B2, “Identification of stabilizers of multimeric proteins” (The Board of Trustees of the Leland Stanford Junior …, priority 2010, dated 2014).

The target in one test is human wild type TTR (Homo sapiens (Human), UniProt P02766). Nature of the test: Isothermal titration calorimetry (ITC) of ligands against TTR. The class given is binding. The conditions noted are these: for TΔS binding entropy / ΔG binding free energy / ΔH binding enthalpy: ITC; for Kd: TTR 2 μM titrated with ligand 25 μM. On the procedure:
Calorimetric titrations were carried out on a VP-ITC calorimeter (MicroCal, Northhampton, Mass.). […] Prior to each titration, all samples were degassed for 10 minutes. The initial injection of 3.0 μL was followed by 30 injections of 8.0 μL each (25° C.) to the point that TTR was fully saturated with ligand. Integration of the thermogram after subtraction of blanks yielded a binding isotherm that was analyzed with MicroCal Origin 5.0 software.

Test [1] has as its target T1, TTR (Homo sapiens (Human), UniProt P02766). Nature of the test: Fluorescence polarization displacement assay (probe 5 displaced from TTR). It counts as binding. To be noted: probe 5 100 nM, TTR 200 nM. On the procedure: The affinity of test compounds to TTR was determined as follows. […] The samples were allowed to equilibrate by agitation for 20 min at room temperature and the fluorescence polarization was measured as described above. The data were fit to the following equation [y=(A−D)/(1+(x/C)^B)+D] where A=maximum FP signal, B=slope, C=apparent binding constant (Kapp), and D=minimum FP signal. The apparent binding constant was reported as mean for triplicate experiments and the best data fit was determined by R^2 value.

The target of test [2] is wild type biotinylated TTR (Homo sapiens (Human), UniProt P02766). The test is described as follows: Surface plasmon resonance (SPR) assay for TTR-ligand interaction. It counts as binding. On the procedure:
To an ice-cold solution of TTR (20 μM) in PBS was added EZ-Link Sulfo-NHS-LC-Biotin at a ratio of ˜2:1 (biotin:TTR) (minimal biotinylation) and the solution was incubated at room temperature. After 1 hour, un-reacted biotin was removed by passing the sample over a fast (FPLC) desalting column (Superdex™ 75) equilibrated with PBS.
SPR measurements were performed at 25° C. using a Biacore T100 (GE Healthcare) instrument equilibrated in 1% DMSO in PBS as a running buffer. After pretreatment of the streptavidin-coated chip (Sensor Chop SA, Biacore), ˜4000 RU biotinylated TTR was immobilized on one channel leaving the second flow channel as a blank (streptavidin alone) control. For binding measurements, HTS hits were diluted in running buffer (1% DMSO/PBS) and different dilution series were flowed over the chip at 50 μL/min ([…], 600 s wash). A zero concentration sample was used as a negative control. The kinetic data was fitted to a one-to-one binding model using Biacore T100 evaluation software.

A further test has as its target WT TTR (Homo sapiens (Human), UniProt P02766). The test is described as follows: Acid-mediated fibril formation assay for TTR amyloidogenesis (turbidity). The conditions noted are these: substoichiometric: ligand 3.0 μM, TTR 3.6 μM, monitored over 5 days.
For test [3], the target named is T1, TTR. To be noted: read-out: Kd (reported affinity for TTR); cited from earlier work.
A further test has as its target IL-2 (Homo sapiens (Human), UniProt P60568). The conditions noted are these: cited from earlier work.
The target in test [4] is T1, TTR. The test is described as follows: Fluorescence polarization saturation binding experiment. On the procedure: The binding of probe 5 for TTR was evaluated as follows. […] The samples were allowed to equilibrate by agitation for 20 min at room temperature. Fluorescence polarization (excitation λ 485 nm, emission λ 525 nm, Cutoff λ 515 nm) measurements were taken using SpectraMax M5 Microplate Reader (Molecular Devices). […] Nonspecific FP, produced by the free fluorescent probe 5 as well as by binding of 5 to the plate, was equal to 70±10 mP.

[5] abbreviates: 25° C., one-to-one binding model, read-out: Kd (ITC).
Setting [6] is: read-out: FP Kapp (apparent binding constant).

Read-outs that look alike come from different tables or passages of the source.

Sequence of IL-2 (P60568 21-153): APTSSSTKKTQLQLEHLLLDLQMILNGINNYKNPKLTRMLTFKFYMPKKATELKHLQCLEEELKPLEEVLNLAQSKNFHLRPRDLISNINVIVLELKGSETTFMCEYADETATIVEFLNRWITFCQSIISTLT
Experimental for WT TTR: The efficacy of each compound to inhibit TTR amyloidogenesis was determined by monitoring the turbidity of TTR aggregation at acidic pH, as described previously. […] The final 1 ml sample mixture was vortexed, then incubated at 37° C. for 72 hours, after which the sample was vortexed and the optical density was measured at 400 nm on a Beckman DU® 640 spectrophotometer. […] The optical density was also corrected for the absorption of all test compounds in the absence of TTR. […] The optical density (400 nm) was measured as described above at 0, 24, 48, 72, 96, and 120 hours. All assays were performed in triplicate and the average values obtained are presented.
TTR was preincubated with small molecules for 30 min at room temperature before amyloidosis was initiated (lowering pH to 4.4, incubation at 37° C.). […] The amyloidogenesis inhibition efficacy of each compound was determined by monitoring the turbidity of TTR (400 nm). The extent of TTR amyloidogenesis was quantitated at a fixed time point (72 h). All amyloid fibril formation data was normalized to TTR amyloidogenesis in the absence of inhibitor, assigned to be 100% fibril formation. […] The aggregation inhibition was monitored over 5 days using the acid-mediated fibril formation assay (compared to 3 days for the fixed time point described above) (FIG. 5B).

Turning to `O=C(O)Cc1ccccc1Nc1c(Cl)cccc1Cl` [Diclofenac, reference compound], at human wild type TTR, the TΔS binding entropy stood at 4.08 ± 0.37 kcal/mol, the “ΔG binding free energy” value is -8.78 ± 0.59 kcal/mol and the ΔH binding enthalpy is -4.69 ± 0.42 kcal/mol. Moreover, on human wild type TTR (listed as diclofenac), the TΔS binding entropy came out at 4.08 ± 0.37 kcal/mol, the “ΔG binding free energy” value was -8.78 ± 0.59 kcal/mol and the ΔH binding enthalpy is -4.69 ± 0.42 kcal/mol. Also, at human wild type TTR (setting [5]), the Kd turned out to be 370 nM. Further, at human wild type TTR (read-out: ITC Kd), the Kd is 370 nM. The Kd on TTR [1] (setting [6]) amounted to 4660 nM. For the same compound, the Kd in test [2] (25° C., read-out: Kd (SPR, equilibrium / steady state analysis)) was determined as 124 ± 8.91 nM. In test [2] (SPR), the koff turned out to be 1.01 s⁻¹, the kon was found to be 8.18e+06 M⁻¹ s⁻¹ and the “lower target residence time than 7” value is around 40 ×. In addition, at WT TTR, the “inhibition of fibril formation” value is reported as around 55%.
In the case of `NCCOCCOCCNC(=O)c1ccc(-c2c(F)cccc2F)cc1` [Compound 2, N-(2-(2-(2-aminoethoxy)ethoxy)ethyl)-2′,6′-difluorobiphenyl-4-carboxamide], the Kd on human wild type TTR (setting [5]) was above 3290 nM; on human wild type TTR (read-out: ITC Kd), above 3290 nM; on TTR [1] (setting [6]) it was above 50000 nM. In addition, the “displacement of probe 5 from TTR (FP signal)” value at TTR [1] is recorded as “did not displace probe 5”.
Regarding `O=C(O)c1ccc(-c2c(F)cccc2F)cc1` [Compound 1, reference compound], at human wild type TTR, the TΔS binding entropy was -21.72 ± 0.26 kcal/mol, the “ΔG binding free energy” value is -9.74 ± 0.10 kcal/mol and the ΔH binding enthalpy was -31.46 ± 0.37 kcal/mol. At human wild type TTR (setting [5]), the Kd came out at 72.5 ± 4.7 nM. Besides, the Kd on human wild type TTR (read-out: ITC Kd) is 72.4 nM. On TTR [1] (setting [6]), the apparent binding constant (Kapp) turned out to be 231 nM. Besides, the Kd on TTR [3] was 80 nM.
For Ro26-4550, the IC50 at IL-2 (read-out: IC50 (IL-2 antagonist)) was 3000 to 6000 nM; on IL-2 (read-out: IC50 (Ro26-4550 bound to IL2)) it was 6000 nM.
For Fluorescein isothiocyanate [FITC], at TTR [4], the “change in FP signal upon addition of TTR” value is given as “no change in the FP signal”.
